Where two headings read alike, the source gives them in different places.
Assays:
[1] = target: T1, HCV NS3/4A protease complex, BMS strain (UniProt P27958, species not given/STRAIN_BMS); assay: FRET peptide assay to monitor HCV NS3/4A proteolytic activity (BMS strain); type: biochemical, Hepatitis C virus (genotype 1a); settings: Table 2, NS3/4A BMS strain
T1 construct: said of H77 and J4L6S; fused on or other part: three-lysine solubilising tail at the end of NS4A (printed for the H77 and J4L6S constructs; probably the same for BMS)
T1 sequence (P27958 1027-1657, change not shown, one chain of several): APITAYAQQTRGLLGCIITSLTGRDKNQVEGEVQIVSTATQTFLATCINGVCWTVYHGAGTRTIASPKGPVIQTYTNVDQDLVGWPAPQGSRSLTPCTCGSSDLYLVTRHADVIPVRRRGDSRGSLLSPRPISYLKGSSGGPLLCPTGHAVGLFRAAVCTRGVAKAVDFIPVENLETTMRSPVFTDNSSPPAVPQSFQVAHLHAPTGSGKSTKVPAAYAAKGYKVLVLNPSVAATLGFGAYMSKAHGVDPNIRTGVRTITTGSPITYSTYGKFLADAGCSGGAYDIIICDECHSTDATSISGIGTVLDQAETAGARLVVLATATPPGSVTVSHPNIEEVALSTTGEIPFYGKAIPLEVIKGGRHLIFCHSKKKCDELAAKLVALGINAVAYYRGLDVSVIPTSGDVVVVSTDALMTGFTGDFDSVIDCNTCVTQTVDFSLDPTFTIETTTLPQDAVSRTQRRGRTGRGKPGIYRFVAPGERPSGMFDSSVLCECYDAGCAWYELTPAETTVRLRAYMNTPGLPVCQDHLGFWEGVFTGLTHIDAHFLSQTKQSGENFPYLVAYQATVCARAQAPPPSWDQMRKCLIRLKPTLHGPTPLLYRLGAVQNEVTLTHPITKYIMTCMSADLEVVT
Source text: HCV […] protease complexes, derived from the BMS strain, H77 strain or J4L6S strain, were generated, as described below. These purified recombinant proteins were generated for use in a homogeneous assay (see below) to provide an indication of how effective compounds of the present disclosure would be in inhibiting HCV NS3 proteolytic activity.
Serum from an HCV-infected patient was obtained from Dr. T. Wright, San Francisco Hospital. An engineered full-length cDNA (compliment deoxyribonucleic acid) template of the HCV genome (BMS strain) was constructed from DNA fragments obtained by reverse transcription-PCR (RT-PCR) of serum RNA (ribonucleic acid) and using primers selected on the basis of homology between other genotype 1a strains. From the determination of the entire genome sequence, a genotype 1a was assigned to the HCV isolate according to the classification of Simmonds et al. (See Simmonds, P. et al., J. Clin. Microbiol., 31(6), 1493-1503 (1993)). […] The infectious clones, H77 (1a genotype) and J4L6S (1b genotype) were obtained from R. Purcell (NIH) and the sequences are published in GENBANK® (AAB67036, see Yanagi, M. et al., Proc. Natl. Acad. Sci. U.S.A., 94(16):8738-8743 (1997); AF054247, see Yanagi, M. et al., Virology, 244(1):161-172 (1998)).
The H77 and J4L6S strains were used for production of recombinant NS3/4A protease complexes. DNA encoding the recombinant HCV NS3/4A protease complex (amino acids 1027 to 1711) for these strains were manipulated as described by P. Gallinari et al. (see Gallinari, P. et al, Biochemistry, 38(17):5620-5632 (1999)). Briefly, a three-lysine solubilizing tail was added at the 3′-end of the NS4A coding region. The cysteine in the P1 position of the NS4A-NS4B cleavage site (amino acid 1711) was changed to a glycine to avoid the proteolytic cleavage of the lysine tag. Furthermore, a cysteine to serine mutation was introduced by PCR at amino acid position 1454 to prevent the autolytic cleavage in the NS3 helicase domain. The variant DNA fragment was cloned in the pET21b bacterial expression vector (Novagen) and the NS3/4A complex was expressed in Escherichia. coli strain BL21 (DE3) (Invitrogen) following the protocol described by P. Gallinari et al. (see Gallinari, P. et al., J. Virol., 72(8):6758-6769 (1998)) with modifications. Briefly, the NS3/4A protease complex expression was induced with 0.5 millimolar (mM) Isopropyl β-D-1-thiogalactopyranoside (IPTG) for 22 hours (h) at 20° C. A typical fermentation (1 Liter (L)) yielded approximately 10 grams (g) of wet cell paste. The cells were resuspended in lysis buffer (10 mL/g) consisting of 25 mM N-(2-hydroxyethyl)piperazine-N′-(2-ethane sulfonic acid) (HEPES), pH 7.5, 20% glycerol, 500 mM sodium chloride (NaCl), 0.5% Triton X-100, 1 microgram/milliliter (“μg/mL”) lysozyme, 5 mM magnesium chloride (MgCl2), 1 μg/ml DnaseI, 5 mM β-mercaptoethanol (βME), protease inhibitor-ethylenediamine tetraacetic acid (EDTA) free (Roche), homogenized and incubated for 20 minutes (min) at 4° C. The homogenate was sonicated and clarified by ultra-centrifugation at 235000 g for 1 hour (h) at 4° C. Imidazole was added to the supernatant to a final concentration of 15 mM and the pH adjusted to 8.0. The crude protein extract was loaded on a Nickel-Nitrilotriacetic acid (Ni-NTA) column pre-equilibrated with buffer B (25 mM HEPES, pH 8.0, 20% glycerol, 500 mM NaCl, 0.5% Triton X-100, 15 mM imidazole, 5 mM βME). The sample was loaded at a flow rate of 1 mL/min. The column was washed with 15 column volumes of buffer C (same as buffer B except with 0.2% Triton X-100). The protein was eluted with 5 column volumes of buffer D (same as buffer C except with 200 mM Imidazole).
NS3/4A protease complex-containing fractions were pooled and loaded on a desalting column Superdex-S200 pre-equilibrated with buffer D (25 mM HEPES, pH 7.5, 20% glycerol, 300 mM NaCl, 0.2% Triton X-100, 10 mM βME). Sample was loaded at a flow rate of 1 mL/min. […]

[2] = tested on: HCV replicon in HUH-7 cells; assay: HCV replicon FRET assay; type: cell-based, Hepatitis C virus (strain 1b); settings: Hepatitis C virus, Huh-7, Table 2, HCV replicon, replicon assay format not stated, read-out: EC50
Source text: An HCV replicon whole cell system was established as described by Lohmann, V. et al., Science, 285(5424):110-113 (1999). This system enabled us to evaluate the effects of our HCV Protease compounds on HCV RNA replication. Briefly, using the HCV strain 1b sequence described in the Lohmann paper (Accession number: AJ238799), an HCV cDNA was synthesized by Operon Technologies, Inc. (Alameda, Calif.), and the full-length replicon was then assembled in plasmid pGem9zf(+) (Promega, Madison, Wis.) using standard molecular biology techniques. The replicon consists of (i) the HCV 5′ UTR fused to the first 12 amino acids of the capsid protein, (ii) the neomycin phosphotransferase gene (neo), (iii) the IRES from encephalomyocarditis virus (EMCV), and (iv) HCV NS3 to NS5B genes and the HCV 3′ UTR. Plasmid DNAs were linearized with ScaI and RNA transcripts were synthesized in vitro using the T7 MegaScript transcription kit (Ambion, Austin, Tex.) according to manufacturer's directions. In vitro transcripts of the cDNA were transfected into the human hepatoma cell line, HUH-7. […] Resulting cell lines were characterized for positive and negative strand RNA production and protein production over time.
The HCV replicon FRET assay was developed to monitor the inhibitory effects of compounds described in the disclosure on HCV viral replication. HUH-7 cells, constitutively expressing the HCV replicon, were grown in Dulbecco's Modified Eagle Media (DMEM) (Gibco-BRL) containing 10% Fetal calf serum (FCS) (Sigma) and 1 mg/ml G418 (Gibco-BRL). Cells were seeded the night before (1.5×10^4 cells/well) in 96-well tissue-culture sterile plates. Compound and no compound controls were prepared in DMEM containing 4% FCS, 1:100 Penicillin/Streptomysin (Gibco-BRL), 1:100 L-glutamine and 5% DMSO in the dilution plate (0.5% DMSO final concentration in the assay). Compound/DMSO mixes were added to the cells and incubated for 4 days at 37° C. After 4 days, cells were first assessed for cytotoxicity using alamar Blue (Trek Diagnostic Systems) for a CC50 reading. The toxicity of compound (CC50) was determined by adding 1/10th volume of alamar Blue to the media incubating the cells. After 4 h, the fluorescence signal from each well was read, with an excitation wavelength at 530 nm and an emission wavelength of 580 nm, using the CYTOFLUOR® Series 4000 (Perspective Biosystems). Plates were then rinsed thoroughly with Phosphate-Buffered Saline (PBS) (3 times 150 μl). The cells were lysed with 25 μl of a lysis assay reagent containing an HCV protease substrate (5× cell Luciferase cell culture lysis reagent (PROMEGA® #E153A) diluted to 1× with distilled water, NaCl added to 150 mM final, the FRET peptide substrate (as described for the enzyme assay above) diluted to 10 μM final from a 2 mM stock in 100% DMSO. The plate was then placed into the CYTOFLUOR® 4000 instrument which had been set to 340 nm excitation/490 nm emission, automatic mode for 21 cycles and the plate read in a kinetic mode. EC50 determinations were carried out as described for the IC50 determinations.

SMILES	IC50 ([1]; activity range)	EC50 ([2]; activity range)	IC50 ([1]; numeric values)	EC50 ([2]; numeric values)
CCCCS[C@@]1(c2ccc(-c3ccccc3)cc2)C[C@@H](C(=O)N[C@]2(C(=O)NS(=O)(=O)C3CC3)C[C@H]2C=C(F)F)N(C(=O)[C@@H](NC(=O)OC(C)(C)C)C(C)(C)C)C1 [Example 7, tert-butyl (S)-1-((2S,4R)-4-(biphenyl-4-yl)-4-(butylthio)-2-((1R,2S)-1-(cyclopropylsulfonylcarbamoyl)-2-(2,2-difluorovinyl)cyclopropylcarbamoyl)pyrrolidin-1-yl)-3,3-dimethyl-1-oxobutan-2-ylcarbamate]	1 to 20 nM	6 to 100 nM		
CCCCS[C@@]1(c2ccc(-c3ccccc3)cc2)C[C@@H](C(=O)N[C@]2(C(=O)NS(=O)(=O)C3CC3)C[C@H]2CC(F)F)N(C(=O)[C@@H](NC(=O)OC(C)(C)C)C(C)(C)C)C1 [Example 4, tert-butyl (S)-1-((2S,4R)-4-(biphenyl-4-yl)-4-(butylthio)-2-((1R,2S)-1-(cyclopropylsulfonylcarbamoyl)-2-(2,2-difluoroethyl)cyclopropylcarbamoyl)pyrrolidin-1-yl)-3,3-dimethyl-1-oxobutan-2-ylcarbamate]	1 to 20 nM	6 to 100 nM		
C=C[C@@H]1C[C@]1(NC(=O)[C@@H]1C[C@](c2ccc(-c3ccccc3)cc2)(S(=O)(=O)CCCC)CN1C(=O)[C@@H](NC(=O)OC(C)(C)C)C(C)(C)C)C(=O)NS(=O)(=O)C1CC1 (single isomer, unassigned) [Example 3]			1 nM	6.6 nM
CCCCS[C@@]1(c2ccc(-c3ccccc3)cc2)C[C@@H](C(=O)N[C@]2(C(=O)NS(=O)(=O)C3CC3)C[C@H]2C2CC2)N(C(=O)[C@@H](NC(=O)OC(C)(C)C)C(C)(C)C)C1 [Example 5, tert-butyl (S)-1-((2S,4R)-4-(biphenyl-4-yl)-4-(butylthio)-2-((1S,2R)-2-(cyclopropylsulfonylcarbamoyl)bi(cyclopropan)-2-ylcarbamoyl)pyrrolidin-1-yl)-3,3-dimethyl-1-oxobutan-2-ylcarbamate]	1 to 20 nM	6 to 100 nM		
CCCCS[C@@]1(c2ccc(-c3ccccc3)cc2)C[C@@H](C(=O)N[C@]2(C(=O)NS(=O)(=O)C3CC3)C[C@H]2C(F)F)N(C(=O)[C@@H](NC(=O)OC(C)(C)C)C(C)(C)C)C1 [Example 6, tert-butyl (S)-1-((2S,4R)-4-(biphenyl-4-yl)-4-(butylthio)-2-((1R,2R)-1-(cyclopropylsulfonylcarbamoyl)-2-(difluoromethyl)cyclopropylcarbamoyl)pyrrolidin-1-yl)-3,3-dimethyl-1-oxobutan-2-ylcarbamate]			2 nM	18 to 36 nM
C=C[C@@H]1C[C@]1(NC(=O)[C@@H]1C[C@@](SC)(c2ccc(-c3ccccc3)cc2)CN1C(=O)[C@@H](NC(=O)OC(C)(C)C)C(C)(C)C)C(=O)NS(=O)(=O)C1CC1 [Example 8, tert-butyl (S)-1-((2S,4R)-4-(biphenyl-4-yl)-2-((1R,2S)-1-(cyclopropylsulfonylcarbamoyl)-2-vinylcyclopropylcarbamoyl)-4-(methylthio)pyrrolidin-1-yl)-3,3-dimethyl-1-oxobutan-2-ylcarbamate]	1 to 20 nM	6 to 100 nM		
C=CCS[C@@]1(c2ccc(-c3ccccc3)cc2)C[C@@H](C(=O)N[C@]2(C(=O)NS(=O)(=O)C3CC3)C[C@H]2C=C)N(C(=O)[C@@H](NC(=O)OC(C)(C)C)C(C)(C)C)C1 [Example 12, tert-butyl (S)-1-((2S,4R)-4-(allylthio)-4-(biphenyl-4-yl)-2-((1R,2S)-1-(cyclopropylsulfonylcarbamoyl)-2-vinylcyclopropylcarbamoyl)pyrrolidin-1-yl)-3,3-dimethyl-1-oxobutan-2-ylcarbamate]	1 to 20 nM	6 to 100 nM		
C=C[C@@H]1C[C@]1(NC(=O)[C@@H]1C[C@@](SC(C)C)(c2ccc(-c3ccccc3)cc2)CN1C(=O)[C@@H](NC(=O)OC1(C)CCCC1)C(C)(C)C)C(=O)NS(=O)(=O)C1CC1 [Example 11, 1-methylcyclopentyl (S)-1-((2S,4R)-4-(biphenyl-4-yl)-2-((1R,2S)-1-(cyclopropylsulfonylcarbamoyl)-2-vinylcyclopropylcarbamoyl)-4-(isopropylthio)pyrrolidin-1-yl)-3,3-dimethyl-1-oxobutan-2-ylcarbamate]	1 to 20 nM	6 to 100 nM		
C=C[C@@H]1C[C@]1(NC(=O)[C@@H]1C[C@@](SC(C)C)(c2ccc(-c3ccccc3)cc2)CN1C(=O)[C@@H](NC(=O)OC(C)(C)C(F)(F)F)C(C)(C)C)C(=O)NS(=O)(=O)C1CC1 [Example 10, 1,1,1-trifluoro-2-methylpropan-2-yl (S)-1-((2S,4R)-4-(biphenyl-4-yl)-2-((1R,2S)-1-(cyclopropylsulfonylcarbamoyl)-2-vinylcyclopropylcarbamoyl)-4-(isopropylthio)pyrrolidin-1-yl)-3,3-dimethyl-1-oxobutan-2-ylcarbamate]	1 to 20 nM	6 to 100 nM		

— patent publication US7964560B2, “Hepatitis C virus inhibitors” (Bristol-Myers Squibb Company, priority 2008, dated 2011)
